pEC50: −log10 of the molar value.
System: HBV
Assay: HBV inhibition assay in HepAD38 cells (extracellular HBV DNA by direct qPCR)
Format: cell-based, HBV genotype D subtype ayw
Conditions: 96 hours, read-out: HBV inh EC50
From the text: HepAD38 cell line (Ladner et al., Antimicrob Agents Chemother, 1997, 41, 1715-20) was used for HBV inhibition assays. HepAD38 is a subclone, derived from hepatoblastoma cell line HepG2 (ATCC® Number: HB-8065), that expresses HBV genome (genotype D subtype ayw) under the transcriptional control of a tetracycline-responsive promoter in a TET-OFF system: addition of doxycycline, an antibiotic belonging to the class of tetracycline, suppresses HBV replication, while its removal switches on the process allowing HBV viral particles release in the cell supernatant. HepAD38 cell line is maintained in DMEM/F12, supplemented with 10% of fetal bovine serum, 1% of glutamine, 1% of penicillin/streptomycin, 0.4 mg/ml G418 and 0.3 ug/ml tetracycline. For the HBV inhibition assay, doxycycline-free medium is used in order to allow virion production.
HBV inhibition activity in vitro was performed in 96 multiwell plates. During the initial (primary) screening, compounds were first tested in triplicates at concentrations of 0.02 μM, 0.1 μM, 0.5 μM and 1 μM. For selected compounds, an 8-point dose-response curve was obtained using 1:2 serial dilutions (starting from 0.01 μM, 0.1 μM, 0.4 μM or 5 μM, depending on the degree of inhibition observed during the primary screening). From the dose-response curves, half maximal effective concentration (EC50) could be calculated (see also below).
In more detail, compounds—typically dissolved in DMSO stock solutions—were diluted to 2× the final desired concentration in 100 μl of the above medium (without doxycycline) and plated in three replicates in the 96-well plates.
Simultaneously, HepAD38 cells—extensively pre-washed in doxycycline-free medium in order to induce HBV production—were suspended at 2*10^4 cells in 100 μl of doxycycline-free medium and added to each well of the plate, to yield a final assay volume of 200 μl.
DMSO, used for stock solutions and compounds dilutions, was always present in the assays at a final concentration of 0.5%.
Plates were then incubated 96 hours at 37° C. and then subjected to cell viability assays and extracellular HBV quantification, in order to evaluate both the cytotoxic potential and the antiviral activity of compounds.
Cytotoxicity was assessed by a commercial fluorescence assay that measures the metabolic activity of cells, directly related to cell viability (Cell Titer Blue, Promega). For each compound, cytotoxicity was evaluated at the same concentration employed to evaluate its anti-HBV activity. Anti-HBV activity was evaluated by quantification of extracellular HBV DNA with direct qPCR. In particular, supernatant was collected and centrifuged for cell debris clarification, viral DNA was extracted from virions by addition of lysis buffer (1 mM 1,4-dithiothreitol, 0.2% sodium dodecyl sulphate) and incubated at 95° C. for 10 min. Samples were then diluted 1:40 and real time PCR amplification was performed with SYBR green assay (Power SYBR™ Green PCR Master Mix-Thermo Fisher Scientific) and specific HBV primer (HBV-DF:5′-[…]-3′ (SEQ ID No. 1), HBV-DR:5′-[…]-3′ (SEQ ID No. 2)).
Antiviral activity data for each compound are reported as EC50 value (see Table 1 legend). Excel and Graphpad Prism programs are typically used for data elaboration and EC50 calculation.

Row | SMILES | pEC50
1 | Cc1cc(NC(=O)c2c3c(cn2C)S(=O)(=O)NC2CCN(C(=O)C(=O)N[C@H](C)C(F)(F)F)CC2CO3)ccc1F (mixture of isomers) [Example E72, Cis-N-(4-fluoro-3-methylphenyl)-2-methyl-8-(2-oxo-2-(((R)-1,1,1-trifluoropropan-2-yl)amino)acetyl)-5,5a,6,7,8,9,9a,10-octahydro-2H-pyrido[4,3-f]pyrrolo[3,4-b][1,4,5]oxathiazocine-1-carboxamide 4,4-dioxide] | > 6.30
2 | Cc1cc(NC(=O)c2c3c(cn2C)S(=O)(=O)NC2CCN(C(=O)C(=O)NCC(F)(F)F)CC2CO3)ccc1F (racemic) [Example E73, Cis-N-(4-fluoro-3-methylphenyl)-2-methyl-8-(2-oxo-2-((2,2,2-trifluoroethyl)amino)acetyl)-5,5a,6,7,8,9,9a,10-octahydro-2H-pyrido[4,3-f]pyrrolo[3,4-b][1,4,5]oxathiazocine-1-carboxamide 4,4-dioxide] | > 6.30

Same assay, conditions: Hepatitis B virus, 96 hours, read-out: HBV inh EC50

Row | SMILES | pEC50
3 | Cc1cc(NC(=O)c2c3c(cn2C)S(=O)(=O)NC2CCN(C(=O)C(=O)NC(C)(C)C(F)(F)F)CC2CO3)ccc1F (racemic) [Example E58, Trans-N-(4-fluoro-3-methylphenyl)-2-methyl-8-(2-oxo-2-((1,1,1-trifluoro-2-methylpropan-2-yl)amino)acetyl)-5,5a,6,7,8,9,9a,10-octahydro-2H-pyrido[4,3-f]pyrrolo[3,4-b][1,4,5]oxathiazocine-1-carboxamide 4,4-dioxide] | > 6.30
4 | Cc1cc(NC(=O)c2c3c(cn2C)S(=O)(=O)NC2CCN(C(=O)C(=O)N[C@@H](C)C(F)(F)F)CC2CO3)ccc1F (mixture of isomers) [Example E56, Trans-N-(4-fluoro-3-methylphenyl)-2-methyl-8-(2-oxo-2-(((S)-1,1,1-trifluoropropan-2-yl)amino)acetyl)-5,5a,6,7,8,9,9a,10-octahydro-2H-pyrido[4,3-f]pyrrolo[3,4-b][1,4,5]oxathiazocine-1-carboxamide 4,4-dioxide] | > 6.30
5 | Cc1cc(NC(=O)c2c3c(cn2C)S(=O)(=O)NC2CCN(C(=O)C(=O)NC4CC4)CC2CO3)ccc1F (racemic) [Example E54, Trans-8-(2-(cyclopropylamino)-2-oxoacetyl)-N-(4-fluoro-3-methylphenyl)-2-methyl-5,5a,6,7,8,9,9a,10-octahydro-2H-pyrido[4,3-f]pyrrolo[3,4-b][1,4,5]oxathiazocine-1-carboxamide 4,4-dioxide] | > 6.30
6 | Cc1cc(NC(=O)c2c3c(cn2C)S(=O)(=O)NC2CN(C(=O)C(=O)N[C@@H](C)C(F)(F)F)CCC2CO3)ccc1F (mixture of isomers) [Example E65, Cis-N-(4-fluoro-3-methylphenyl)-2-methyl-7-(2-oxo-2-(((S)-1,1,1-trifluoropropan-2-yl)amino)acetyl)-5,5a,6,7,8,9,9a,10-octahydro-2H-pyrido[3,4-f]pyrrolo[3,4-b][1,4,5]oxathiazocine-1-carboxamide 4,4-dioxide] | > 6.30
7 | Cc1cc(NC(=O)c2c3c(cn2C)S(=O)(=O)NC2CN(C(=O)C(=O)N[C@H](C)C(F)(F)F)CC2(C)CO3)ccc1F (stereo in doubt) [Example E26, Cis-N-(4-fluoro-3-methylphenyl)-7,10a-dimethyl-2-(2-oxo-2-(((R)-1,1,1-trifluoropropan-2-yl)amino)acetyl)-2,3,3a,4,10,10a-hexahydro-1H,7H-dipyrrolo[3,4-b:3′,4′-f][1,4,5]oxathiazocine-8-carboxamide 5,5-dioxide] | > 6.30
8 | Cc1cc(NC(=O)c2c3c(cn2C)S(=O)(=O)NC2CN(C(=O)C(=O)NC4CC4)CCC2CO3)ccc1F (racemic) [Example E64, Cis-7-(2-(cyclopropylamino)-2-oxoacetyl)-N-(4-fluoro-3-methylphenyl)-2-methyl-5,5a,6,7,8,9,9a,10-octahydro-2H-pyrido[3,4-f]pyrrolo[3,4-b][1,4,5]oxathiazocine-1-carboxamide 4,4-dioxide] | > 6.30
9 | Cc1cc(NC(=O)c2c3c(c(C)n2C)S(=O)(=O)N[C@H]2CN(C(=O)C(=O)N[C@H](C)C(F)(F)F)C[C@H]2CO3)ccc1F [Example E53, (3aR,10aR)—N-(4-fluoro-3-methylphenyl)-6,7-dimethyl-2-(2-oxo-2-(((R)-1,1,1-trifluoropropan-2-yl)amino)acetyl)-2,3,3a,4,10,10a-hexahydro-1H,7H-dipyrrolo[3,4-b:3′,4′-f][1,4,5]oxathiazocine-8-carboxamide 5,5-dioxide] | > 6.30
10 | Cc1cc(NC(=O)c2c3c(cn2C)S(=O)(=O)NC2CCN(C(=O)C(=O)N[C@H](C)C(F)(F)F)CC2CO3)ccc1F (mixture of isomers) [Example E59, Trans-N-(4-fluoro-3-methylphenyl)-2-methyl-8-(2-oxo-2-(((R)-1,1,1-trifluoropropan-2-yl)amino)acetyl)-5,5a,6,7,8,9,9a,10-octahydro-2H-pyrido[4,3-f]pyrrolo[3,4-b][1,4,5]oxathiazocine-1-carboxamide 4,4-dioxide] | > 6.30
11 | Cc1cc(NC(=O)c2c3c(cn2C)S(=O)(=O)NC2CN(C(=O)C(=O)N4CC(F)(F)C4)CCC2CO3)ccc1F (racemic) [Example E63, Cis-7-(2-(3,3-difluoroazetidin-1-yl)-2-oxoacetyl)-N-(4-fluoro-3-methylphenyl)-2-methyl-5,5a,6,7,8,9,9a,10-octahydro-2H-pyrido[3,4-f]pyrrolo[3,4-b][1,4,5]oxathiazocine-1-carboxamide 4,4-dioxide] | > 6.30

System: HBV
Assay: not given
Conditions: Phase 1b clinical studies; cited from earlier work

Row | SMILES | HBV DNA | serum HBV RNA
12 | O=C(Nc1cc(F)c(F)c(F)c1)c1ccc(F)c(S(=O)(=O)N2CCC(O)CC2)c1 [NVR3-778] | significant reduction | significant reduction
